# From PMC10339131, “Characterization of two bacterial multi-flavinylated proteins harboring multiple covalent flavin cofactors” (BBA Advances, 2023)
# Legend:
# SaFMN3 = molecular target: T1, SaFMN3 (Streptomyces azureus, UniProt A0A0K8PVQ4); assay: ESI-MS of intact protein; TCA precipitation; UV-visible spectrum; assay type: binding; conditions: covalent; three FMN sites, threonyl phosphoester; attached by co-expressed ApbE
# T1 construct: gene SAZU_6878; N-terminal residues 1-48 (signal/membrane anchor) removed; His6-SUMO fusion, cleaved; E. coli BL21-AI with ApbE and CaFADS; mainly monomer; three FMN domains
# T1 sequence (A0A0K8PVQ4 49-352): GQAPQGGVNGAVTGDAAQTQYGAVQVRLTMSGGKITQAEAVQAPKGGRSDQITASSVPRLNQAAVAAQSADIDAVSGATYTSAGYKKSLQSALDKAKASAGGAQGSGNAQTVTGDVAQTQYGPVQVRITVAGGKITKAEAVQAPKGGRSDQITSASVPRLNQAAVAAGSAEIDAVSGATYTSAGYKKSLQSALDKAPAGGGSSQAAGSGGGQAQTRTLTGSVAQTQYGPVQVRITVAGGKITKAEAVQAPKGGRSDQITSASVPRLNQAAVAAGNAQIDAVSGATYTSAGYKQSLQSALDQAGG
# CbFMN4-D1 = molecular target: T2, CbFMN4-D1 (Clostridiaceae bacterium, UniProt Z9KOB2RJF1); assay: X-ray crystal structure, […] A; assay type: binding; conditions: covalent; bound via Thr67 (domain numbering); attached by co-expressed ApbE
# T2 construct: expressed in E. coli BL21-AI with ApbE and CaFADS; SUMO cleaved; two molecules per asymmetric unit from crystal packing
# T2 sequence (Z9KOB2RJF1 1-85): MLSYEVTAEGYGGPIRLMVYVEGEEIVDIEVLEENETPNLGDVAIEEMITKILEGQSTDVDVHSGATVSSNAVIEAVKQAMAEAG
structure (smiles),measurement,setting,value
Cc1cc2nc3c(=O)[nH]c(=O)nc-3n(C[C@H](O)[C@H](O)[C@H](O)COP(=O)(O)O)c2cc1C [FMN],ESI-MS of intact protein; TCA precipitation; UV-visible spectrum,SaFMN3,exactly corresponds to the predicted mass of fully flavinylated SaFMN3
same,"X-ray crystal structure, 2.60 A",CbFMN4-D1,Both CbFMN4-D1 molecules have a covalently bound FMN via Thr67.
